What was measured:
Cholecystokinin CCK2 = tested on: T1, Cholecystokinin CCK2; assay: Cerep binding; parameters: species or system human; conditions: 10 μM; [125I]CCK-8s; hum. recomb. (CHO)
T1 construct: purchased Eurofins Cerep

Neurotensin NTS1 (NT1) = tested on: T2, Neurotensin NTS1 (NT1); assay: Cerep binding; parameters: species or system human; conditions: 10 μM; [125I]Tyr3-neurotensin; hum. recomb. (CHO)
T2 construct: host or cells: CHO

male Sprague-Dawley rats = assay: Prepulse inhibition; format: in vivo, rat; conditions: 1, 3 and 10 mg/kg p.o., 30 min prior to testing
Procedure: intensities (72, 76, 80, 84 dB) at total plasma concentrations of 56 ± 20, 169 ± 20, and […]
Compound administered at 1, 3 and 10 mg/kg p.o. to male Sprague-Dawley rats 30 min prior to testing. Bars indicate mean percent prepulse inhibition (% PPI) ± SEM; 10 animals per dose group. Background noise: 68 dB. Startle pulse: 12 0 dB. For full methods refer to:
Nordquist et al. (2008). Effects of aripiprazole/OPC-14597 on motor activity, pharmacological models of psychosis, and brain activity in rats. Neuropharmacology , 54,405-416.
Animals were euthanized at the end of testing and plasma samples were collected approximately 60 min post administration; n = 4 rats per group.
(1 picture or pasted object on this page, not shown here)

Neurokinin NK2 = tested on: T3, Neurokinin NK2; assay: Cerep binding; parameters: species or system human; conditions: 10 μM; [125I]NKA; hum. recomb. (CHO)
T3 construct: purchased Eurofins Cerep

Endothelin ETB = tested on: T4, Endothelin ETB; assay: Cerep binding; parameters: species or system human; conditions: 10 μM; [125I]endothelin-1; hum. recomb. (CHO)
T4 construct: purchased Eurofins Cerep

human GABAA α2β3γ2 = tested on: T5, human GABAA α2β3γ2; assay: Two-electrode voltage clamp in Xenopus oocytes, current induced by EC10 of GABA; format: cell-based; conditions: 3000 nM
T5 construct: expressed in transfected cells; host or cells: Xenopus laevis oocytes, cRNA injection
Procedure: (§1) Freshly prepared oocytes of maturation stage VI were bought from Ecocyte Bioscience (Castrop-Rauxel, Germany) and, after overnight delivery, plated into 96-well plates (Greiner no. 651101) for microinjection on a ROBOOCYTE R16 system (Multichannel Systems MCS GmbH, Reutlingen, Germany). Each oocyte was injected with roughly 50 nL of RNA solution. The solution for expressing receptors composed of the human α1, β2 and γ2 subunits contained 3 pg/nL of α1 and β2 RNA and 15 pg/nL of γ2 RNA. The solution for expressing human α2β3γ2 receptors contained 2.5 pg/nL of α2 and β3 RNA, 5 pg/nL of γ2 RNA and 10 pg/nL of GABARAP RNA. The solution for expressing human α3β3γ2 receptors contained 1.3 pg/nL of α3 and β3 RNA and 6.5 pg/nL of γ2 RNA. The solution for expressing human α5β3γ2 receptors contained 1.3 pg/nL of α5 and β3 RNA and 13 pg/nL of γ2 RNA. GABARAP was added to the α2β3γ2 subunit mixture since the expression of γ2 would be low otherwise, as indicated by a weak effect of β-CCM[60]. After the microinjection the oocytes were kept at 20 °C temperature until the electrophysiological experiment. Experiments were done 3 to 5 days later on the ROBOOCYTE instrument which employs the two-microelectrode voltage-clamp technique for membrane voltage control and current measurement. […] During current recording and compound testing the cell membrane was constantly clamped to − 80 mV. Current signals were recorded and stored on a PC-type computer using the ROBOOCYTE software.
(§2) During the microinjection and up to the electrophysiological experiment the oocytes were kept in a solution containing 88 mM NaCl, 1 mM KCl, 2.5 mM NaHCO3, 10 mM HEPES (AppliChem GmbH, Darmstadt, Germany), 0.82 MgSO4, 0.33 mM Ca(NO3)2, 0.33 mM CaCl2, 100 U/mL penicillin (GIBCO, ThermoFisher Scientific) and 100 µg/mL streptomycine (GIBCO, ThermoFisher Scientific). The pH was adjusted to 7.5. During the experiment the voltage-clamped oocyte was constantly superfused by a solution containing 90 mM NaCl, 1 mM KCl, 5 mM HEPES (AppliChem), 1 mM MgCl2 and 1 mM CaCl2 (pH 7.4). GABA and test compounds were added to this solution. GABA concentrations were chosen according to previously determined concentration–response relations for the different human GABAA receptor subunit combinations. Concentrations evoking approximately 10% of a maximal response were selected, i.e., 8 µM for α1β2γ2, 6 µM for α2β3γ2, 10 µM for α3β3γ2 and 5 µM for α5β3γ2. Solutions containing GABA or test compounds were freshly prepared at least every second day. […] Compounds were further diluted in DMSO and finally in extracellular saline to reach a DMSO concentration of 0.1%. The same amount of DMSO was added to the control solutions without test compounds. […]

human GABAA α1β2γ2 = tested on: T6, human GABAA α1β2γ2; assay: as above; format: cell-based; conditions: 3000 nM
T6 construct: expressed in transfected cells; host or cells: Xenopus laevis oocytes, cRNA injection
Procedure: as §1, §2

human GABAA α3β3γ2 = tested on: T7, human GABAA α3β3γ2; assay: as above; format: cell-based; conditions: 3000 nM
T7 construct: expressed in transfected cells; host or cells: Xenopus laevis oocytes, cRNA injection
Procedure: as §1, §2

[1] = tested on: T8, Vasoactive intestinal peptide PAC1 (PACAP); assay: Cerep binding; parameters: species or system human; conditions: 10 μM; [125I]PACAP1-27; hum. recomb. (CHO)
T8 construct: host or cells: CHO

Prostanoid EP4 = tested on: T9, Prostanoid EP4; assay: Cerep binding; parameters: species or system human; conditions: 10 μM; [3H]PGE2; hum. recomb. (CHO)
T9 construct: host or cells: CHO

In the case of `Cc1onc(-c2ccc(F)cc2)c1COc1ccc(C(=O)N2CCS(=O)(=O)CC2)cn1` [basmisanil], the “% Inhibition” value (Cholecystokinin CCK2) is reported as -21%, the “% Inhibition” value (Neurotensin NTS1 (NT1)) is reported as -6% and the “prepulse inhibition induced by prepulse intensities 72, 76, 80, 84 dB” value (male Sprague-Dawley rats) is reported as “does not impair prepulse inhibition”. The “% Inhibition” value (Neurokinin NK2) was 7%, the “% Inhibition” value (Endothelin ETB) was -2% and the inhibition (human GABAA α2β3γ2) was under 10%. The inhibition (human GABAA α1β2γ2) was under 10%, the inhibition (human GABAA α3β3γ2) was under 10% and the “% Inhibition” value [1] was -16%. For the same compound, the “% Inhibition” value (Prostanoid EP4) was 3%.

From article PMC8032764 (Scientific Reports, 2021)
